Test results reported in US9381143B2, “Use of substituted methoxyalkoxyphenylalkyl derivatives as preservative, preserving method, compounds and composition” (L'OREAL, priority 2010, dated 2016).

Assays:
Test in all cases: Challenge Test (artificial contamination) of cosmetic formula
Format in all cases: cell-based
[1] = tested on: Escherichia coli (Ec) ATCC 8739; details: 2% compound in cosmetic formula; inoculum approx. 10^6 CFU/g; 7 days at 22° C. in the dark; <200 CFU = sensitivity threshold
Procedure: (§1) The antimicrobial efficacy of a compound of formula (I) was evaluated by the Challenge Test or artificial contamination method.
(§2) The challenge test method consists of an artificial contamination of the sample with microbial strains from collection (bacteria, yeasts and moulds) and of an evaluation of the number of revivable microorganisms seven days after inoculation.
(§3) 5 pure cultures of microorganisms are used.
(§4) The gram−bacterial strains (Escherichia coli and Pseudomonas aeruginosa), the gram+bacterial strain (Enterococcus faecalis), the yeast strain (Candida albicans), and the mould strain (Aspergillus niger) are inoculated into subculturing medium, respectively the day before inoculation for the bacteria and the yeast, and 5 days before inoculation for the mould.
(§5) On the day of inoculation: • a suspension in tryptone salt diluent is prepared respectively for the bacteria and the yeast in such a way as to obtain, on a spectrophotometer, a suspension having an optical density between 35% and 45% of transmitted light at 544 nm; • for the mould, the spores are taken by washing the agar with 6 to 7 ml of harvesting solution and the suspension is recovered in a sterile flask or tube.
(§6) After having homogenized the microbial suspension, 0.2 ml of inoculum (the suspensions are used pure: between 1×10^8 and 3×10^8 CFU per ml) are placed in each pill bottle and the microbial suspension is completely homogenized in the 20 g of product (=cosmetic formula) using a spatula.
(§7) The amount of microorganisms present in the product corresponds, after homogenization, to a concentration of 10^6 microorganisms per gram of product, i.e. the inoculation at 1% of an inoculum containing 10^8 microorganisms per ml. After 7 or 14 days of contact time between the microorganisms and the product at 22° C.±2° C. and in the dark, ten-fold dilutions are carried out and the number of revivable microorganisms remaining in the product is counted.

[2] = tested on: Candida albicans (Ca) ATCC 10231; details: 2% compound in cosmetic formula; inoculum approx. 10^6 CFU/g; 7 days at 22° C. in the dark; <200 CFU = sensitivity threshold
Procedure: as §1, §2, §3, §4, §5, §6, §7

[3] = tested on: Enterococcus faecalis (Ef) ATCC 33186; details: 2% compound in cosmetic formula, inoculum approx. 10^6 CFU/g
Procedure: as §1, §2, §3, §4, §5, §6, §7

[4] = tested on: Pseudomonas aeruginosa (Pa) ATCC 19429; details: 2% compound in cosmetic formula; inoculum approx. 10^6 CFU/g; 7 days at 22° C. in the dark; <200 CFU = sensitivity threshold
Procedure: as §1, §2, §3, §4, §5, §6, §7

[5] = tested on: Aspergillus niger (An) ATCC 6275; details: 2% compound in cosmetic formula, inoculum approx. 10^6 CFU/g
Procedure: as §1, §2, §3, §4, §5, §6, §7

## COc1ccc(CCC(C)=O)cc1OC
[1]
  Number of CFU/gram of product at T = 7 days, E. coli: <200 CFU/gram of product
[2]
  Number of CFU/gram of product at T = 7 days, C. albicans: <200 CFU/gram of product
[3]; 7 days at 22° C. in the dark
  Number of CFU/gram of product at T = 7 days, E. faecalis: 7.3 · 10^5 CFU/gram of product
[3]; 14 days at 22° C. in the dark
  Number of CFU/gram of product at T = 14 days, E. faecalis: 3.3 · 10^8 CFU/gram of product
[4]
  Number of CFU/gram of product at T = 7 days, P. aeruginosa: <200 CFU/gram of product
[5]; 7 days at 22° C. in the dark
  Number of CFU/gram of product at T = 7 days, A. niger: 1.4 · 10^6 CFU/gram of product
[5]; 14 days at 22° C. in the dark
  Number of CFU/gram of product at T = 14 days, A. niger: 3.6 · 10^5 CFU/gram of product
